Experiments:
[1] = test system: K. pneumoniae; assay: Biofilm inhibition assay (96-well microtiter plate); type: cell-based, Klebsiella pneumoniae; conditions: K. pneumoniae 1840; crystal violet
Description: (§1) Biofilm inhibition assay. Biofilms were cultured in 96-well polystyrene microtiter plates as previously described. Briefly, cells were diluted to 104 to […] CFU/ml in TSB supplemented with 0.1 vol of PAM extract, or 0.1 vol of water as a control. Aliquots of cells (200 μl each) were transferred to the wells of a microtiter plate, and the plate was incubated at 37° C. for 18 h. Biofilms were washed with water and stained for 1 min with 200 μl of Gram's crystal violet. Stained biofilms were rinsed with water and dried. The amount of crystal violet binding was quantitated by destaining the biofilms for 10 min with 200 μl of 33% acetic acid, and then measuring the absorbance of the crystal violet solution at 595 nm. All assays were performed 3-5 times with similarly significant decreases in absorbance values.

[2] = test system: S. aureus strain SH1000; assay: Biofilm inhibition assay (96-well microtiter plate crystal violet binding); type: cell-based, Staphylococcus aureus
Description: as §1
Expressing the K. kingae pam genes in E. coli. Plasmids pGEM-T, pMB10, pMB5 and pMB9 were transformed into E. coli strain JM109. Transformants were selected on agar supplemented with 50 μg/ml ampicillin. Lawns of transformants were grown on agar plates supplemented with 50 μg/ml ampicillin and 1 mM IPTG. Lawns were harvested and cell-free extracts were prepared by ultracentrifugation as described above. Extracts were sterilized by passage through a 0.22-μm filter, incubated at 100° C. for 15 min, and then tested for activity in the biofilm inhibition assay described above.

[3] = test system: K. kingae; assay: Biofilm inhibition assay (96-well microtiter plate); type: cell-based, Kingella kingae; conditions: K. kingae PYKK181; crystal violet
Description: as §1

Measured: biofilm-inhibiting activity of purified PAM galactan

→3)-β-D-Galf-(1→6)-β-D-Galf-(1→ [PAM galactan]
exhibited biofilm-inhibiting activity: all assays above

Reference: patent publication US8906393B2, “Biofilm inhibiting composition” (Rutgers, The State University of New Jersey, priority 2011, dated 2014)
